{"source": "ChEMBL document CHEMBL5465560", "about": "“Selectivity Literature for EUbOPEN Chemogenomic Library” (2024)", "key": {"[1]": {"test_system": "Serine/threonine-protein kinase B-raf (Homo sapiens), P15056 [V600E]", "sequence (P15056 whole entry V600E)": "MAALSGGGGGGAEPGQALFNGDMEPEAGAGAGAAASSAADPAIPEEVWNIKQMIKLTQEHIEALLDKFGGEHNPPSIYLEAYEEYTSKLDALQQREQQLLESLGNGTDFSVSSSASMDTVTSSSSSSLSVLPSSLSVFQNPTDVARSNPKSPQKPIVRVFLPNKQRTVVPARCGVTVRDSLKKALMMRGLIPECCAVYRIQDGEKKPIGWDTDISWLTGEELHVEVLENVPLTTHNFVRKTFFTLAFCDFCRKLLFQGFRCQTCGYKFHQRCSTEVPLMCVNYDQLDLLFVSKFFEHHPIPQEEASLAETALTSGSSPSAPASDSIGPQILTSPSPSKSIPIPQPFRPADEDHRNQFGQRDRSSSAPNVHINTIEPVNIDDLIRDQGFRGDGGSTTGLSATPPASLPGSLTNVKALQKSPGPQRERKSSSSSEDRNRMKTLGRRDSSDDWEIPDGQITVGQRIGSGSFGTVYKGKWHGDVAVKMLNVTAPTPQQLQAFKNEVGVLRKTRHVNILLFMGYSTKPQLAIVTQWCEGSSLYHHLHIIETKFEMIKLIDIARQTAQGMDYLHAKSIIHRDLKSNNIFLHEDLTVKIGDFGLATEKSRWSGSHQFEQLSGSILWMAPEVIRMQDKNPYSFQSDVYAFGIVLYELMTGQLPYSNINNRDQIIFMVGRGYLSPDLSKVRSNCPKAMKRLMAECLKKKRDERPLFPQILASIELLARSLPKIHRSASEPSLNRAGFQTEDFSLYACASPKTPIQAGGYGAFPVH", "experiment": "(§1) Selectivity interaction (LanthaScreen Eu Kinase Binding Assay) EUB0001632a BRAF", "conditions": "at 10 µM"}, "[2]": {"molecular_target": "Serine/threonine-protein kinase B-raf (Homo sapiens) (UniProt P15056)", "sequence (P15056 whole entry)": "as the sequence (P15056 whole entry V600E) above, with E600V counted along it", "experiment": "as §1", "conditions": "at 10 µM"}, "[3]": {"molecular_target": "Ribosomal protein S6 kinase alpha-3 (Homo sapiens, UniProt P51812)", "sequence (P51812 whole entry)": "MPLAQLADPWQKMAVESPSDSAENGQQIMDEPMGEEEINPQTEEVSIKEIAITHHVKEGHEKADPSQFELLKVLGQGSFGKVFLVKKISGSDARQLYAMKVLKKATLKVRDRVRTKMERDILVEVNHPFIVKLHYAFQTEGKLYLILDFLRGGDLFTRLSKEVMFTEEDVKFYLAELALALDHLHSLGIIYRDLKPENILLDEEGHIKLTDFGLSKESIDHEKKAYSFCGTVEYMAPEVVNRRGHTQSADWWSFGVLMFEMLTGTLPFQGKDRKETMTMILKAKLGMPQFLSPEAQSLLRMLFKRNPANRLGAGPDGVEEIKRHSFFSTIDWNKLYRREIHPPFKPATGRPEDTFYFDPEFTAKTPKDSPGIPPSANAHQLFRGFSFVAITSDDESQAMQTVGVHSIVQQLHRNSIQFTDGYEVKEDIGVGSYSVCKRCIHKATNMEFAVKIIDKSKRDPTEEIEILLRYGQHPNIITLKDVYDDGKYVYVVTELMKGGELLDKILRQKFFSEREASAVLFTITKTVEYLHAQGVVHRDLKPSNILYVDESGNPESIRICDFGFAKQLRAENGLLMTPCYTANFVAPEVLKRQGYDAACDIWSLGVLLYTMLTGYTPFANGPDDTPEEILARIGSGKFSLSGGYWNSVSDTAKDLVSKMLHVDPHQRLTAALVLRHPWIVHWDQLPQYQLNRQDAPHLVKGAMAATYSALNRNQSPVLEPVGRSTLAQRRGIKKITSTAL", "experiment": "Selectivity interaction (ActivX KiNativ screen (kinase selectivity in THP-1 cell lysates)) EUB0000639a RPS6KA3", "type": "subcellular", "conditions": "lysate, at 0.01 µM"}, "[4]": {"molecular_target": "T1, Protein kinase C zeta type (Homo sapiens) (UniProt Q05513)", "T1 sequence (whole entry)": "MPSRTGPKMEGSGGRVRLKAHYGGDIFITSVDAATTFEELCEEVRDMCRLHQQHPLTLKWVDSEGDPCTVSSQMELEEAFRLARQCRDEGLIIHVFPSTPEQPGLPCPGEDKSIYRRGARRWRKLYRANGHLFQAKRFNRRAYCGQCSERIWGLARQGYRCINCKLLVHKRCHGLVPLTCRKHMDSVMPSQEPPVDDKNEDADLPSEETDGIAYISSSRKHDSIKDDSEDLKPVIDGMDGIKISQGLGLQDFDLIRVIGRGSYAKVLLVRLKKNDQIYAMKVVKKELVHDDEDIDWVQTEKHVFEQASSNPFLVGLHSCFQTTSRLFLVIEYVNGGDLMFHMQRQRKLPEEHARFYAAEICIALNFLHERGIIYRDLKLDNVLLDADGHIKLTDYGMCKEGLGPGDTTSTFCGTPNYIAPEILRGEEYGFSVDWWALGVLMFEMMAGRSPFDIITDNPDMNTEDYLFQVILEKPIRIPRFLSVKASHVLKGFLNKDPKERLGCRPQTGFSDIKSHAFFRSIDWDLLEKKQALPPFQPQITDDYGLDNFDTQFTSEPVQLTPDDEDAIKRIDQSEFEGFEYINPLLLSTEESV", "experiment": "Selectivity interaction (ProQinase) EUB0000171b PRKCZ"}, "[5]": {"molecular_target": "Cyclin-dependent kinase 17 (Homo sapiens) (UniProt Q00537)", "sequence (Q00537 whole entry, looked up)": "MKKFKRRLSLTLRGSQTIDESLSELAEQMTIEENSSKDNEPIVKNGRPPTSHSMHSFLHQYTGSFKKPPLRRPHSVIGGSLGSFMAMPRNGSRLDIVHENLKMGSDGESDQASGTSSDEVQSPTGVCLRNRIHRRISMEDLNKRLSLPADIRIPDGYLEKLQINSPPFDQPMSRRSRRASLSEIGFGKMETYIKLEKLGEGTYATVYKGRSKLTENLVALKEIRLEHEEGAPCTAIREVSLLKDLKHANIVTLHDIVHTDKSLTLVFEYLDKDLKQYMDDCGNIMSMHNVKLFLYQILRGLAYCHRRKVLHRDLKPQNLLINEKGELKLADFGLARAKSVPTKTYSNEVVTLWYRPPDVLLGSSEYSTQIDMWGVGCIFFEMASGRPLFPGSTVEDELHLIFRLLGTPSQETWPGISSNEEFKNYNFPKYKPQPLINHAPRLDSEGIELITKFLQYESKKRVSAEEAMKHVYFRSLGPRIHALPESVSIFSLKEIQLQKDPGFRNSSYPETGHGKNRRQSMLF", "experiment": "Selectivity interaction (KinomeScan (DiscoverX)) EUB0000695a CDK17", "conditions": "at 100 nM"}, "[6]": {"test_system": "eIF-2-alpha kinase GCN2 (Homo sapiens), Q9P2K8 [S808G]", "sequence (Q9P2K8 whole entry S808G)": "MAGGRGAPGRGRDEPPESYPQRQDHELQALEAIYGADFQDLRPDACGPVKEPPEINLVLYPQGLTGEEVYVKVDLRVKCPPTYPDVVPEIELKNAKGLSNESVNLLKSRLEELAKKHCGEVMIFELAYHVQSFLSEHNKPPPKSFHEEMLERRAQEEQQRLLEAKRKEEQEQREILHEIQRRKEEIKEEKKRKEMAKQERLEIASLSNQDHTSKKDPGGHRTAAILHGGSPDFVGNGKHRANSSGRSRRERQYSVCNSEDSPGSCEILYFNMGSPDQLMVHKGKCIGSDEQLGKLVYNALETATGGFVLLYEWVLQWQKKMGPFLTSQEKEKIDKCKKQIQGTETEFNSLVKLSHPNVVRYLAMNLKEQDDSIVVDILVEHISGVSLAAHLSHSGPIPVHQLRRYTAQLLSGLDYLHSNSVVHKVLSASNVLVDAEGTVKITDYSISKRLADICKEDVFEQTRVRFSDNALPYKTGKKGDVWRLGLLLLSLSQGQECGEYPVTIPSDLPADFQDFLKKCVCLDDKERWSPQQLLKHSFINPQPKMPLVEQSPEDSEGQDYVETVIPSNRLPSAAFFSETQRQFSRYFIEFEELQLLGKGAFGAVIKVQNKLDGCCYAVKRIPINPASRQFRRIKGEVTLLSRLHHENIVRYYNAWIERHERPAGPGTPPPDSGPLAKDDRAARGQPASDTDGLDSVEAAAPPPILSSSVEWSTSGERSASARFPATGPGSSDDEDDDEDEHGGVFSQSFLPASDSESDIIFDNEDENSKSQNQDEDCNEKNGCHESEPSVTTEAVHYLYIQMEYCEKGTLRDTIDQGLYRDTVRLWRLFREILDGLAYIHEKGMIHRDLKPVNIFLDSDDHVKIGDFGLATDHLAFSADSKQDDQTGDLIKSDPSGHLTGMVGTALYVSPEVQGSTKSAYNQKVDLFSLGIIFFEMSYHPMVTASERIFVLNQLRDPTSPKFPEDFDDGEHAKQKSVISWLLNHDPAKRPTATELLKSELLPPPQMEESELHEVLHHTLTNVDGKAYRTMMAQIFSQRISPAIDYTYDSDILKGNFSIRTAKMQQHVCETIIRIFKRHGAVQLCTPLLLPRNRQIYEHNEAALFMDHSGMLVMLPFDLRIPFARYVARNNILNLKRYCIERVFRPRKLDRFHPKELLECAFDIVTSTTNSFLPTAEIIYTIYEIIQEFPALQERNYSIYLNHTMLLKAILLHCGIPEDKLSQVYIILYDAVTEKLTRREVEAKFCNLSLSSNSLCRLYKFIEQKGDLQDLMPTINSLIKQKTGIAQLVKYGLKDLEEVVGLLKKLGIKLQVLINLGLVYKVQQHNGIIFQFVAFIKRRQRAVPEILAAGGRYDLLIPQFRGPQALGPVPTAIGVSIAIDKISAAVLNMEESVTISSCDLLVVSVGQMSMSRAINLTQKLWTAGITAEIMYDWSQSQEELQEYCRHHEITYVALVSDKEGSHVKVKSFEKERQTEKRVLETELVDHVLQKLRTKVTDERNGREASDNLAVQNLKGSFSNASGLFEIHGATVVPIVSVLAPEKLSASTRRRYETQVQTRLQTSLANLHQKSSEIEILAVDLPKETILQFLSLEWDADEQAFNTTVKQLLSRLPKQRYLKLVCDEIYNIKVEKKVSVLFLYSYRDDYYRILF", "experiment": "Selectivity interaction (KinomeScan (DiscoverX)) EUB0000695a EIF2AK4", "conditions": "at 100 nM"}, "[7]": {"molecular_target": "T2, Mitogen-activated protein kinase kinase kinase 15 (Homo sapiens) (UniProt Q6ZN16)", "T2 sequence (whole entry)": "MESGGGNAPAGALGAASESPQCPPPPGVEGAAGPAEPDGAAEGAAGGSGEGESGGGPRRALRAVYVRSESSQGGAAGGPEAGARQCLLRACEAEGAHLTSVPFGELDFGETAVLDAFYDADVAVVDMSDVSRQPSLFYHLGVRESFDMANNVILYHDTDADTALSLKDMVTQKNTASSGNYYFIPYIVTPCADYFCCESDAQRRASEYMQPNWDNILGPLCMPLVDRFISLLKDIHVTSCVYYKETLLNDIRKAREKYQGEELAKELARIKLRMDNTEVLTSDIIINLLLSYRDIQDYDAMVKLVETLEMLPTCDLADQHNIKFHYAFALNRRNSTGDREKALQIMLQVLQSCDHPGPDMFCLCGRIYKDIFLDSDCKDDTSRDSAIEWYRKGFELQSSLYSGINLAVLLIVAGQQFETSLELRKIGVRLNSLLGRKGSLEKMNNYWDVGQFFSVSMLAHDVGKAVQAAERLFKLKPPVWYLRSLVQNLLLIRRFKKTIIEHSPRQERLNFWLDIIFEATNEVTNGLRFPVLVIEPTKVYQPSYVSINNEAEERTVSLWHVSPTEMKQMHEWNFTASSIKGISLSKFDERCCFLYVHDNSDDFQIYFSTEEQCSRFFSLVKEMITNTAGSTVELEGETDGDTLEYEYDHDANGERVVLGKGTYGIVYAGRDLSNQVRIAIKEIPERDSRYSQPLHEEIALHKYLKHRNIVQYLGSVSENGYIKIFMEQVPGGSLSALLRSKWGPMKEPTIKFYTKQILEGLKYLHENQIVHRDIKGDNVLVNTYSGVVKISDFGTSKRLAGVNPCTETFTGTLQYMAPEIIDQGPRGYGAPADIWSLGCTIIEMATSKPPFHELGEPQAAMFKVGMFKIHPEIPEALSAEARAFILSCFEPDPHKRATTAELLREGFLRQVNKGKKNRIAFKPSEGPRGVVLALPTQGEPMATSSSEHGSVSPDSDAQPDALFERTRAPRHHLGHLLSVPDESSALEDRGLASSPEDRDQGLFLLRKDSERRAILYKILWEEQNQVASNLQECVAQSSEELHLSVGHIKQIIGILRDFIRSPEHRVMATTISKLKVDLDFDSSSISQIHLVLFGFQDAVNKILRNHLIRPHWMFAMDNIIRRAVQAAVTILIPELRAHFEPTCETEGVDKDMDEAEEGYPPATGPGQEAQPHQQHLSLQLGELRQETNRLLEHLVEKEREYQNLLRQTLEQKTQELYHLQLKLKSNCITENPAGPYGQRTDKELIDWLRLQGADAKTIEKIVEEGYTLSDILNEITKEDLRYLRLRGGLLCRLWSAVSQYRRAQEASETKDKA", "experiment": "Selectivity interaction (Ambit KINOMEscan and KiNATiv profiling in Jurkat cells) EUB0000090b MAP3K15", "type": "cell-based", "conditions": "at 1 µM"}, "[8]": {"molecular_target": "Tyrosine-protein kinase Lck (Homo sapiens, UniProt P06239)", "sequence (P06239 2-509 limits assumed)": "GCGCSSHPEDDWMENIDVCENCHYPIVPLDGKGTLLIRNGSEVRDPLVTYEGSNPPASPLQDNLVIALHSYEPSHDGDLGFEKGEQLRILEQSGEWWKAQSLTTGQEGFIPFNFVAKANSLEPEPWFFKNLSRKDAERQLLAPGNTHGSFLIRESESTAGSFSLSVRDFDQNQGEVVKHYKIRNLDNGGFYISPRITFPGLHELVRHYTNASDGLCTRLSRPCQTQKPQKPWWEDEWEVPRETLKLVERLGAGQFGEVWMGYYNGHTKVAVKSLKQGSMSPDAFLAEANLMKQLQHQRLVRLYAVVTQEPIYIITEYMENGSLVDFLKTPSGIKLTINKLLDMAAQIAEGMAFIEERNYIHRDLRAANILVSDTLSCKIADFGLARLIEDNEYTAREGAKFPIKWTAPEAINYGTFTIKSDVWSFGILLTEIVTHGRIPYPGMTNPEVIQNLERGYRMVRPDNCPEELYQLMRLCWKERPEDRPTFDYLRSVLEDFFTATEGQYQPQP", "experiment": "Selectivity interaction (KinomeScan (DiscoverX)) EUB0000045b LCK"}, "[9]": {"molecular_target": "T3, STE20-related kinase adapter protein alpha (Homo sapiens) (UniProt Q7RTN6)", "T3 sequence (whole entry)": "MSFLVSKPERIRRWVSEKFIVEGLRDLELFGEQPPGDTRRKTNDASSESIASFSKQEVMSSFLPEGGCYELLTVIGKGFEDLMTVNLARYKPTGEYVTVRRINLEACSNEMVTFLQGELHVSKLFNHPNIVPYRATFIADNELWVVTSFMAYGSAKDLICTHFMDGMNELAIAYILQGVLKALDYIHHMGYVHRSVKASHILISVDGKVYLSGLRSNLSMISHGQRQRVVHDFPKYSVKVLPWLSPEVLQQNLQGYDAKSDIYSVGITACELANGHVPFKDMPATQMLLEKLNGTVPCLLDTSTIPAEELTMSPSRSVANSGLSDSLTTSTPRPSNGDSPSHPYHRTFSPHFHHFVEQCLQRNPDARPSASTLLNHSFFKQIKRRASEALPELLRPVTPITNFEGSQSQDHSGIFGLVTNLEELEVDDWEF", "experiment": "Selectivity interaction (Kinase panel (KiNativ target engagement assay in Jurkat cells)) EUB0001635a STRADA", "type": "cell-based", "conditions": "Selectivity number of off-targets 0.0, Selectivity number of targets 233.0, Source Knowledge https://www.sciencedirect.com/science/article/pii/S2451945619300674?via%3Dihub, at 1 µM"}, "[10]": {"molecular_target": "Mitogen-activated protein kinase 9 (Homo sapiens, UniProt P45984)", "sequence (P45984 whole entry, looked up)": "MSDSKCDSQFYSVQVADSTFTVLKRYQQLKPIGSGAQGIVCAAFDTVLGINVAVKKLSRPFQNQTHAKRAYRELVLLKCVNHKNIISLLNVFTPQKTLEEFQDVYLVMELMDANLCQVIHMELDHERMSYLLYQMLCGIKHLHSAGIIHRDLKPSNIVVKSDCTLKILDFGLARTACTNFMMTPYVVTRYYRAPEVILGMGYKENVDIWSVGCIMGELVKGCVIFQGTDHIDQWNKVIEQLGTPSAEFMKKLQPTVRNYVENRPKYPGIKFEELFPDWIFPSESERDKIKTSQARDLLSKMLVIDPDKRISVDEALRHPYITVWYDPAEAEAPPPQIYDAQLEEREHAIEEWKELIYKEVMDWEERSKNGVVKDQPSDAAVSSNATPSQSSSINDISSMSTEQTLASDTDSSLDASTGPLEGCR", "experiment": "Selectivity interaction (KinomeScan (DiscoverX)) EUB0000229b MAPK9", "conditions": "at 10 µM"}}, "data": [{"compound": "Cn1cc(-n2cnc3c(NCc4nc5cc(Cl)c(Cl)cc5[nH]4)nc(N4CCOCC4)nc32)cn1", "values": [{"measurement": "% of inhibition", "setting": "[1]", "result": 9.14, "unit": "%"}, {"measurement": "% of inhibition", "setting": "[2]", "result": 5.68, "unit": "%"}]}, {"compound": "CC[C@@H]1[C@H](F)C(=O)N[C@@H]1COc1nccc2cc(C(N)=O)c(OC)cc12", "note": "[ZIMLOVISERTIB]", "values": [{"measurement": "% of inhibition", "setting": "[3]", "result": 17.5, "unit": "%"}]}, {"compound": "C=CC(=O)Nc1cccc(C(=O)Nc2ccc(Nc3cc(-c4[nH]c(SC)nc4C)ccn3)cc2)c1", "values": [{"measurement": "% of control", "setting": "[4]; at 1 µM", "result": 87, "unit": "%"}, {"measurement": "% of control", "setting": "[4]; at 5 µM", "result": 86, "unit": "%"}]}, {"compound": "Cc1cc(F)c(C(=O)Nc2cccc(-c3nncn3C(C)C)n2)cc1-n1cnc(C2CC2)c1", "values": [{"measurement": "% of control", "setting": "[5]", "result": 100, "unit": "%"}, {"measurement": "% of control", "setting": "[6]", "result": 77, "unit": "%"}]}, {"compound": "CN(C)C/C=C/C(=O)Nc1ccc(C(=O)N2CCCC(Nc3ncc(Cl)c(-c4c[nH]c5ccccc45)n3)C2)cc1", "note": "(configuration not stated)", "values": [{"measurement": "% of control", "setting": "[7]", "result": 73, "unit": "%"}]}, {"compound": "C=CC(=O)Nc1cc(-n2c(=O)ccc3cnc4ccc(-c5ccc(NS(C)(=O)=O)cc5)cc4c32)ccc1C", "values": [{"measurement": "% of control", "setting": "[8]; at 1 µM", "result": 89, "unit": "%"}, {"measurement": "% of control", "setting": "[8]; at 10 µM", "result": 80, "unit": "%"}]}, {"compound": "C=CC(=O)Nc1ccc(C(=O)Nc2[nH]nc3c2CN(C(=O)N[C@H](CN(C)C)c2ccccc2)C3(C)C)cc1", "values": [{"measurement": "% of engagement", "setting": "[9]", "result": 2.1, "unit": "%"}]}, {"compound": "COc1cc(N(C)c2ccnc3ccc(C(F)(F)F)cc23)cc(OC)c1OC", "values": [{"measurement": "% binding", "setting": "[10]", "result": 80, "unit": "%"}]}]}
